Source: patent US20070142392A1, “Uses of rifamycins” (ActivBiotics, Inc., priority 2005, published 2007)
Values after ≈ are worked out from the molar mass of the structure shown.

Experiments:
Type in all cases: cell-based
S. aureus = assay: MIC values, S. aureus (Tables 1-4)
S. pneumo. = assay: MIC values, S. pneumo. (Tables 1-4)
E. faecalis = assay: MIC values, E. faecalis (Tables 1-4)
H. flu = test system: H. flu
E. coli = assay: MIC values, E. coli (Tables 1-4)

SMILES | MIC S. aureus (S. aureus) [µg/mL] | MIC S. pneumo. (S. pneumo.) [µg/mL] | MIC E. faecalis (E. faecalis) [µg/mL] | MIC H. flu (H. flu) [µg/mL] | MIC E. coli (E. coli) [µg/mL]
CO[C@H]1/C=C/O[C@@]2(C)Oc3c(C)c(O)c4c(=O)c(c5oc6cc(N7C[C@@H]8CCCN(C)[C@@H]8C7)cc(O)c6nc-5c4c3C2=O)NC(=O)/C(C)=C\C=C\[C@H](C)[C@H](O)[C@@H](C)[C@@H](O)[C@@H](C)[C@H](OC(C)=O)[C@@H]1C [Compound 58] | 0.03 (≈ 0.0319 µM) | 0.004 (≈ 0.00426 µM) | 1 (≈ 1.06 µM) | 0.25 (≈ 0.266 µM) | >8
CO[C@H]1/C=C/O[C@@]2(C)Oc3c(C)c(O)c4c(=O)c(c5oc6cc(N7C[C@@H]8CCCN(C)[C@@H]8C7)cc(O)c6nc-5c4c3C2=O)NC(=O)/C(C)=C\C=C\[C@H](C)[C@H](O)[C@@H](C)[C@@H](O)[C@@H](C)[C@H](O)[C@@H]1C [Compound 59] | 0.004 (≈ 0.00446 µM) | 0.001 (≈ 0.00111 µM) | 0.06 (≈ 0.0669 µM) | 0.12 (≈ 0.134 µM) | 4 (≈ 4.46 µM)
CCOC(=O)NCC1CCN(c2cc(O)c3nc4c5c6c7c(C)c(O)c5c(=O)c(c-4oc3c2)NC(=O)/C(C)=C\C=C\[C@H](C)[C@H](O)[C@@H](C)[C@@H](O)[C@@H](C)[C@H](O)[C@H](C)[C@@H](OC)/C=C/O[C@@](C)(O7)C6=O)CC1 [Compound 60] | 0.008 (≈ 0.00848 µM) | 0.0005 (≈ 0.00053 µM) | 0.5 (≈ 0.53 µM) | 0.06 (≈ 0.0636 µM) | >8
CO[C@H]1/C=C/O[C@@]2(C)Oc3c(C)c(O)c4c(=O)c(c5oc6cc(N7CCC(CCO)CC7)cc(O)c6nc-5c4c3C2=O)NC(=O)/C(C)=C\C=C\[C@H](C)[C@H](O)[C@@H](C)[C@@H](O)[C@@H](C)[C@H](OC(C)=O)[C@@H]1C [Compound 61] | 0.004 (≈ 0.00431 µM) | 0.00012 (≈ 0.000129 µM) | 1 (≈ 1.08 µM) | 0.25 (≈ 0.269 µM) | >8
CO[C@H]1/C=C/O[C@@]2(C)Oc3c(C)c(O)c4c(=O)c(c5oc6cc(N7CCC(c8ccccc8)CC7)cc(O)c6nc-5c4c3C2=O)NC(=O)/C(C)=C\C=C\[C@H](C)[C@H](O)[C@@H](C)[C@@H](O)[C@@H](C)[C@H](O)[C@@H]1C [Compound 62] | 0.015 (≈ 0.0163 µM) | 0.008 (≈ 0.00871 µM) | 8 (≈ 8.71 µM) | 0.5 (≈ 0.545 µM) | >8
COCCOC(=O)NC1CCN(c2cc(O)c3nc4c5c6c7c(C)c(O)c5c(=O)c(c-4oc3c2)NC(=O)/C(C)=C\C=C\[C@H](C)[C@H](O)[C@@H](C)[C@@H](O)[C@@H](C)[C@H](O)[C@H](C)[C@@H](OC)/C=C/O[C@@](C)(O7)C6=O)CC1 [Compound 63] | 0.008 (≈ 0.00834 µM) | 0.002 (≈ 0.00209 µM) | 1 (≈ 1.04 µM) | 0.25 (≈ 0.261 µM) | 8 (≈ 8.34 µM)
CO[C@H]1/C=C/O[C@@]2(C)Oc3c(C)c(O)c4c(=O)c(c5sc6cc(N7C[C@@H](C)N[C@@H](C)C7)ccc6nc-5c4c3C2=O)NC(=O)/C(C)=C\C=C\[C@H](C)[C@H](O)[C@@H](C)[C@@H](O)[C@@H](C)[C@H](OC(C)=O)[C@@H]1C [Compound 64] | 0.004 (≈ 0.00438 µM) | 0.00012 (≈ 0.000131 µM) | 0.12 (≈ 0.131 µM) | 0.25 (≈ 0.274 µM) | 4 (≈ 4.38 µM)
CO[C@H]1/C=C/O[C@@]2(C)Oc3c(C)c(O)c4c(=O)c(c5sc6cc(N7C[C@@H](C)N[C@@H](C)C7)ccc6nc-5c4c3C2=O)NC(=O)/C(C)=C\C=C\[C@H](C)[C@H](O)[C@@H](C)[C@@H](O)[C@@H](C)[C@H](O)[C@@H]1C [Compound 65] | 0.002 (≈ 0.0023 µM) | 0.00025 (≈ 0.000287 µM) | 0.12 (≈ 0.138 µM) | 0.12 (≈ 0.138 µM) | 2 (≈ 2.3 µM)
CO[C@H]1/C=C/O[C@@]2(C)Oc3c(C)c(O)c4c(=O)c(c5oc6cc(N7CCC(CCO)CC7)cc(O)c6nc-5c4c3C2=O)NC(=O)/C(C)=C\C=C\[C@H](C)[C@H](O)[C@@H](C)[C@@H](O)[C@@H](C)[C@H](O)[C@@H]1C [Compound 66] | 0.004 (≈ 0.00451 µM) | 0.0005 (≈ 0.000564 µM) | 0.12 (≈ 0.135 µM) | 0.12 (≈ 0.135 µM) | 4 (≈ 4.51 µM)
CCCS(=O)(=O)NC1CCN(c2cc(O)c3nc4c5c6c7c(C)c(O)c5c(=O)c(c-4oc3c2)NC(=O)/C(C)=C\C=C\[C@H](C)[C@H](O)[C@@H](C)[C@@H](O)[C@@H](C)[C@H](O)[C@H](C)[C@@H](OC)/C=C/O[C@@](C)(O7)C6=O)CC1 [Compound 67] | 0.008 (≈ 0.00831 µM) | 0.001 (≈ 0.00104 µM) | 0.5 (≈ 0.519 µM) | 0.12 (≈ 0.125 µM) | >8
COC1C=COC2(C)Oc3c(C)c(O)c4c(=O)c(c5sc6cc(N7CC(C)N(CC8CC8)CC7C)ccc6nc-5c4c3C2=O)NC(=O)C(C)=CC=CC(C)C(O)C(C)C(O)C(C)C(OC(C)=O)C1C (centres unmarked) [Compound 68] | 0.06 (≈ 0.062 µM) | 0.0005 (≈ 0.000517 µM) | 2 (≈ 2.07 µM) | 0.5 (≈ 0.517 µM) | >8
CO[C@H]1/C=C/O[C@@]2(C)Oc3c(C)c(O)c4c(=O)c(c5sc6cc(N7CCC(N(C)C)CC7)ccc6nc-5c4c3C2=O)NC(=O)/C(C)=C\C=C\[C@H](C)[C@H](O)[C@@H](C)[C@@H](O)[C@@H](C)[C@H](OC(C)=O)[C@@H]1C [Compound 69] | 0.015 (≈ 0.0162 µM) | 0.00025 (≈ 0.00027 µM) | 0.5 (≈ 0.539 µM) | 0.5 (≈ 0.539 µM) | 4 (≈ 4.31 µM)
COC1C=COC2(C)Oc3c(C)c(O)c4c(=O)c(c5sc6cc(N7CC(C)N(CC8CC8)CC7C)ccc6nc-5c4c3C2=O)NC(=O)C(C)=CC=CC(C)C(O)C(C)C(O)C(C)C(O)C1C (centres unmarked) [Compound 70] | 0.03 (≈ 0.0324 µM) | 0.001 (≈ 0.00108 µM) | 1 (≈ 1.08 µM) | 1 (≈ 1.08 µM) | >8
CO[C@H]1/C=C/O[C@@]2(C)Oc3c(C)c(O)c4c(=O)c(c5oc6cc(N7CCC(C)(N(C)C)CC7)cc(O)c6nc-5c4c3C2=O)NC(=O)/C(C)=C\C=C\[C@H](C)[C@H](O)[C@@H](C)[C@@H](O)[C@@H](C)[C@H](OC(C)=O)[C@@H]1C [Compound 71] | 0.008 (≈ 0.0085 µM) | 0.00012 (≈ 0.000128 µM) | 0.25 (≈ 0.266 µM) | 0.5 (≈ 0.531 µM) | 4 (≈ 4.25 µM)
CO[C@H]1/C=C/O[C@@]2(C)Oc3c(C)c(O)c4c(=O)c(c5oc6cc(N7CCC(C)(NC(C)=O)CC7)cc(O)c6nc-5c4c3C2=O)NC(=O)/C(C)=C\C=C\[C@H](C)[C@H](O)[C@@H](C)[C@@H](O)[C@@H](C)[C@H](OC(C)=O)[C@@H]1C [Compound 72] | 0.008 (≈ 0.00838 µM) | 0.00025 (≈ 0.000262 µM) | 2 (≈ 2.09 µM) | 0.5 (≈ 0.524 µM) | >8
CO[C@H]1/C=C/O[C@@]2(C)Oc3c(C)c(O)c4c(=O)c(c5oc6cc(N7CCC(C)(N(C)C)CC7)cc(O)c6nc-5c4c3C2=O)NC(=O)/C(C)=C\C=C\[C@H](C)[C@H](O)[C@@H](C)[C@@H](O)[C@@H](C)[C@H](O)[C@@H]1C [Compound 73] | 0.002 (≈ 0.00222 µM) | 0.00025 (≈ 0.000278 µM) | 0.03 (≈ 0.0334 µM) | 0.12 (≈ 0.133 µM) | 2 (≈ 2.22 µM)
